Assay results: US20260041747A1, “T CELL EPITOPES ASSOCIATED WITH TYPE 1 DIABETES” (Repertoire Immune Medicines, Inc., priority 2022, published 2026)
pEC50: −log10 of the molar value.

Columns and labels:
[1] = tested on: PBMC-derived CD8+ T cells from T1D patients; assay: Binding of HLA-A*02:01 barcoded pMHC tetramer library to PBMC-derived CD8+ T cells of T1D patients and healthy donors; parameters: species or system human; settings: for Normalized T1D prevalence: average number of times the epitope in the pMHC tetramer library was bound by cognate TCR in the T1D cohort, 8 T1D patients, 1 nM per tetramer; for % Presence in T1D samples: percentage of T1D samples in which the epitope response was observed
Text: This example describes assessment of peptide binding to peripheral T cells from 8 short clinical duration T1D patients and 21 healthy donors who are HLA-matched without a history of diabetes, thereby to identify T1D-associated, HLA-A*02:01-restricted T cell epitopes.
Briefly, in the high-throughput screen described in Example 1, a library of HLA-A*02:01 oligo-barcoded pMHC tetramers was created as described in Francis et al., (2022) Sci Immunol 21:eabk3070. This tetramer library was composed of individual pMHCs representing hundreds of different epitopes identified in Example 1. CD8+ T cells were derived from frozen peripheral blood mononuclear cells (PBMCs) of human donors. CD8+ T cells were enriched via magnetic-activated cell separation from thawed PBMCs via commercially available negative enrichment kits (Miltenyi). Resulting enriched CD8+ T cells were counted and a standard input of 1 million CD8+ T cells per subject were then stained with tetramer libraries at final concentration of 1 nM per pMHC tetramer, in the presence of 2 mg/mL salmon sperm DNA in PBS with 0.5% BSA solution for 20 min. Stained cells were barcoded by commercially available anti-TCR antibody-derived tags (ADT, clone IP26, Biolegend). Tetramer bound cells were then labeled with phycoerythrin (PE) conjugated anti-DKDDDDK-Flag antibody (Biolegend) followed by dead cell discrimination using 7-amino-actinomycin D (7-AAD). Live, tetramer positive cells were sorted using a Sony MA900 Sorter. Following sorting, tetramer positive cells were single-cell sequenced using commercially available systems and protocols from 10× Genomics. Post-sequencing cells were demultiplexed and passed through standard quality control workflows (removal of duplicates, damaged cells, empty droplets, etc.) as described in Francis et al., (2022) Sci Immunol 21:eabk3070. Demultiplexed, tetramer positive cells were scored for pMHC-TCR interactions as described in Francis et al., (2022) Sci Immunol 21:eabk3070. Non-control pMHC-TCR putative binders passing quality control filters and scoring were used for analysis. The resulting pMHC-TCR matrix reactivity map was analyzed by abundance for “normalized T1D prevalence”, “relative enrichment”, and “% presence in T1D samples.” Normalized prevalence was defined as the average number of times an epitope in the pMHC tetramer library was bound by cognate TCR in the T1D cohort. […] Finally, for an epitope to be considered of value, it must pass prevalence and enrichment thresholds and have cognate T cells present in at least 75 percent of T1D subjects.

recombinant TCRs (rTCRs) = assay: Activation (CD69+) of J76-CD8-NFAT-GFP cells expressing recombinant TCRs by peptide-loaded HLA-A*02:01+ T2 cells; assay type: cell-based, human; settings: 50 μM peptide, T2 cells 1:1, 16 hours
Text: This example describes functional validation of the T cell epitopes described in Examples 2 and 3, and their cognate TCRs, by assessing the ability of certain T cell epitopes, when presented by APCs that express HLA-A*02:01, to activate an immortalized T cell line expressing recombinant TCRs sequenced from the T cells of T1D patients and healthy donors. […] The relevance of certain identified T1D associated epitopes was evidenced by binding and activation of cognate TCRs in primary T cells or recombinant T cell lines.
(§1) Briefly, native paired alpha and beta TCR sequences identified from human tissues, such as PBMC or islet-derived CD8 T cells, were cloned into the pLVX-EFla lentiviral backbone (Takara) as a bicistronic TCRB-T2A-TCRa vector. TCRa/B/Jurkat J76 cells, which were engineered to express CD8 and a nuclear factor of activated T cells (NFAT)-green fluorescent protein (GFP) reporter (referred to as J76-CD8-NFAT-GFP), were transduced with lentiviral vectors produced from HEK 293T cells. To assess functional activity of the recombinant TCRs (rTCRs), J76-CD8-NFAT-GFP expressing recombinant TCRs were incubated at a 1:1 ratio with the HLA-A*02:01^+ T2(174×CEM.T2) (ATCC CRL-1991) lymphoblastic cell line, with a final concentration of 50 μM of cognate peptide (Vivitide, >95% pure) or 0.5% dimethylsulfoxide (DMSO, vehicle). Cell mixtures were incubated at 37° C., 5% CO2 for 16 hours. Activation of the T cells was assessed by flow cytometry using anti-CD3-PE-Cy7 (Clone UCHT1) and anti-CD69-APC (Clone FN50) antibodies, and analyzed using the Satorius iQue Screener Plus and FlowJo v10. Activation of rTCR-expressing cell lines was determined by comparing the mean percentage of CD69^+ cells out of CD3^+ cells, in cell mixtures with cognate peptide-loaded T2 cells, with the mean percentage in cell mixtures with no peptide (DMSO control).

islet-derived rTCR = assay: Peptide dose-response of islet-derived rTCR expressed in Jurkat T cells; assay type: cell-based, human; settings: Jurkat T cells expressing islet-derived rTCR, pulsed with 0.001 to 100 μM peptide; approximate affinity of pMHC-rTCR interaction; read-out: EC50 (half maximal effective concentration)
Procedure: FIG. 1 depicts a dose-response for the islet-derived rTCR described in Table 5 when pulsed with a range of cognate peptide from 0.001 to 100 μM.
This epitope bound to a single, high abundance TCR derived from an individual that was diagnosed with Type I diabetes 4 months prior to death. […] The EC50 value represents an approximate affinity for the pMHC-rTCR[…] interaction.
as §1, with “To assess functional activity of the recombinant TCRs (rTCRs), J76-CD8-NFAT-GFP expressing recombinant TCRs were incubated at a 1:1 ratio with the HLA-A*02:01^+ T2(174×CEM.T2) (ATCC CRL-1991) lymphoblastic cell line, with a final concentration of 50 μM of cognate peptide (Vivitide, >95% pure) or 0.5% dimethylsulfoxide (DMSO, vehicle). Cell mixtures were incubated at 37° C., 5% CO2 for 16 hours.” left out

[2] = tested on: pancreatic islet infiltrating T cells; assay: Binding of pMHC library to polyclonally expanded islet-derived T cell lines from T1D organ donors; parameters: species or system human; settings: single high abundance TCR
Text: This example describes assessment of peptides that bind to T cell lines derived from living pancreatic islets of recently deceased pancreatic organ donors with T1D, thereby to identify T1D-associated, HLA-A*02:01-restricted T cell epitopes directly associated with islet infiltrating T cells. This assay, using specialized post-mortem processing of difficult-to-obtain pancreas biopsy, further confirmed the association of selected epitopes with T1D, given that disease-associated T cell epitopes generally result in infiltration of T cells that can cause inflammation and subsequent beta cell cytotoxicity in the pancreas.
Briefly, pancreatic slices were sourced from individuals with suspected or confirmed Type I diabetes diagnosis at the time of death by the Network of Pancreatic Organ Donors. Within in 72 hours of death, pancreatic islets were macrodissected from the slices under sterile conditions. These islets were cultured with a cocktail of cytokines and immune stimulating factors that allow T cell expansion independent of cognate TCR-pMHC interaction, using the polyclonal T cell expansion method described in Babon et al., (2016) Nat Med 22:1482-1487. The resulting T cell lines were then screened against pMHC libraries described in Example 2.
This epitope bound to a single, high abundance TCR derived from an individual that was diagnosed with Type I diabetes 4 months prior to death. […]

Sequence | Normalized T1D prevalence [1] | % Presence in T1D samples [1] [%] | further results
ALAWAVWLA | 1.94 | 87.5 | –
ALMGQAAGV | 1.50 | 87.5 | –
FLPYDHARI | 2.94 | 87.5 | –
FLSWALNSC | 2.50 | 100 | –
FSESILTYV | 2.88 | 87.5 | –
FVAGLFVML | 1.88 | 87.5 | –
GQWAGGAYA | 1.81 | 87.5 | –
KLNWDLHTA | 3.63 | 87.5 | –
KLSPSQHLA | 1.06 | 87.5 | –
KMAKDWKTV | 2.38 | 100 | Mean % CD69+ T cells with cognate peptide (recombinant TCRs (rTCRs); TCR_12, source PBMC): 18.65%
LLPPRVLPA | – | – | Mean % CD69+ T cells with cognate peptide (recombinant TCRs (rTCRs); TCR_15, source PBMC): 32.25%
LMSGILGLA | 2.44 | 87.5 | –
LQFRGSMLA | 2.00 | 100 | –
MVWESGCVV | 16.313 | 100 | –
NLLYPVPLV | 2.81 | 87.5 | Mean % CD69+ T cells with cognate peptide (recombinant TCRs (rTCRs); TCR_03, source PBMC): 49.75%; Mean % CD69+ T cells with cognate peptide (recombinant TCRs (rTCRs); TCR_08, source PBMC): 27.25%; Mean % CD69+ T cells with cognate peptide (recombinant TCRs (rTCRs); TCR_11, source PBMC): 21.65%
NLYTFVLKV | 2.56 | 87.5 | –
QALDVGWLV | 1.19 | 87.5 | –
QLLFSLPKL | – | – | Mean % CD69+ T cells with cognate peptide (recombinant TCRs (rTCRs); TCR_16, source PBMC): 61.55%
SVALWNNAV | 1.13 | 87.5 | –
TLDIFLEIV | – | – | Mean % CD69+ T cells with cognate peptide (recombinant TCRs (rTCRs); TCR_17, source PBMC): 36.7%
TLMAVIGGL | 3.63 | 100 | –
TLSKPSPMPV | 1.06 | 87.5 | –
TLSWALYEL | 2.50 | 100 | Mean % CD69+ T cells with cognate peptide (recombinant TCRs (rTCRs); TCR_01, source PBMC): 59.8%; Mean % CD69+ T cells with cognate peptide (recombinant TCRs (rTCRs); TCR_02, source PBMC): 58%; Mean % CD69+ T cells with cognate peptide (recombinant TCRs (rTCRs); TCR_04, source PBMC): 48%; Mean % CD69+ T cells with cognate peptide (recombinant TCRs (rTCRs); TCR_06, source PBMC): 39%; Mean % CD69+ T cells with cognate peptide (recombinant TCRs (rTCRs); TCR_07, source PBMC): 33.55%; Mean % CD69+ T cells with cognate peptide (recombinant TCRs (rTCRs); TCR_14, source PBMC): 15.45%
TLVTLCHYA | 1.94 | 87.5 | –
VIGDWLNLI | 2.188 | 75 | pEC50 (islet-derived rTCR): 5.66; Mean % CD69+ T cells with cognate peptide (recombinant TCRs (rTCRs); TCR_09, source PBMC): 26.15%; Mean % CD69+ T cells with cognate peptide (recombinant TCRs (rTCRs); TCR_18, source PBMC): 26.15%; Mean % CD69+ T cells with cognate peptide (recombinant TCRs (rTCRs); TCR_19, source islet): 28.8%; Binding to islet-derived T cells from T1D patients [2]: identified as binding
VLQASSISA | 3.19 | 100 | –
VLVNKVLLV | 1.69 | 87.5 | Mean % CD69+ T cells with cognate peptide (recombinant TCRs (rTCRs); TCR_10, source PBMC): 29.45%
YAPWELLSV | 2.44 | 87.5 | Mean % CD69+ T cells with cognate peptide (recombinant TCRs (rTCRs); TCR_05, source PBMC): 38.4%; Mean % CD69+ T cells with cognate peptide (recombinant TCRs (rTCRs); TCR_13, source PBMC): 17.55%
